Assay results as given in ChEMBL document CHEMBL1134169, “Serotonergic and dopaminergic activities of rigidified (R)-aporphine derivatives” (Bioorg Med Chem Lett, 2001).

Key:
[1] = biological target: T1, 5-hydroxytryptamine receptor 1A (Homo sapiens, UniProt P08908); assay: In vitro binding affinity towards cloned human 5-hydroxytryptamine 1A receptor expressed in Chinese hamster ovary (CHO) cells using [3H]8-OH-DPAT as radioligand; format: cell-based
T1 sequence (P08908 whole entry): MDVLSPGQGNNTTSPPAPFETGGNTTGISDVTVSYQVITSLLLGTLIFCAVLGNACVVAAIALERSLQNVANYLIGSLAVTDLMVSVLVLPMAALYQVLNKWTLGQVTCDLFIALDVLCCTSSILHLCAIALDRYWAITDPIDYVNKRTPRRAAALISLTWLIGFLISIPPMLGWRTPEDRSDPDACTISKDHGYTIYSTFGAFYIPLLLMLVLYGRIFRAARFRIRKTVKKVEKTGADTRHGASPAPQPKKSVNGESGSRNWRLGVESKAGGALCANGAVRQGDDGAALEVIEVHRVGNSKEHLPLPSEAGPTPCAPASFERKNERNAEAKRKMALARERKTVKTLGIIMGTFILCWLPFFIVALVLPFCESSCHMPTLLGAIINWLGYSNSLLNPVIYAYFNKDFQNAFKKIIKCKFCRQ

[2] = biological target: 5-hydroxytryptamine receptor 7 (Rattus norvegicus, UniProt P32305); assay: In vitro binding affinity towards cloned rat 5-hydroxytryptamine 7 receptor using [3H]5-HT as radioligand
D(2) dopamine receptor = D(2) dopamine receptor (Homo sapiens, UniProt P14416); assay: In vitro binding affinity towards cloned human Dopamine receptor D2A using [3H]- Raclopride as radioligand.
[3] = biological target: T2, 5-hydroxytryptamine receptor 1A (Rattus norvegicus, UniProt P19327); assay: In vitro binding affinity towards 5-hydroxytryptamine 1A receptor using [3H]8-OH-DPAT as radioligand in rat hippocampus membrane.; format: cell membranes
T2 sequence (P19327 whole entry): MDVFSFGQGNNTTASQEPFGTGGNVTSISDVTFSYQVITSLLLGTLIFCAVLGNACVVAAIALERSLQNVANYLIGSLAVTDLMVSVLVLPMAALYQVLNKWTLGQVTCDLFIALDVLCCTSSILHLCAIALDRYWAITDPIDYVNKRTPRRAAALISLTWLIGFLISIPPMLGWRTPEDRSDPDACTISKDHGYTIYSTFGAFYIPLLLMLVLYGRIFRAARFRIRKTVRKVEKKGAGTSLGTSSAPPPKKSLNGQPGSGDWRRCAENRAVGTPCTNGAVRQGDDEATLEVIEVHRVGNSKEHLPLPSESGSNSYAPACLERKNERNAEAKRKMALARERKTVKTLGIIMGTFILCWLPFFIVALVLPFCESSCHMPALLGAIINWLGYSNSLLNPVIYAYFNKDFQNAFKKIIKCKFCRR

Chain of 5-hydroxytryptamine receptor 7 (P32305 whole entry): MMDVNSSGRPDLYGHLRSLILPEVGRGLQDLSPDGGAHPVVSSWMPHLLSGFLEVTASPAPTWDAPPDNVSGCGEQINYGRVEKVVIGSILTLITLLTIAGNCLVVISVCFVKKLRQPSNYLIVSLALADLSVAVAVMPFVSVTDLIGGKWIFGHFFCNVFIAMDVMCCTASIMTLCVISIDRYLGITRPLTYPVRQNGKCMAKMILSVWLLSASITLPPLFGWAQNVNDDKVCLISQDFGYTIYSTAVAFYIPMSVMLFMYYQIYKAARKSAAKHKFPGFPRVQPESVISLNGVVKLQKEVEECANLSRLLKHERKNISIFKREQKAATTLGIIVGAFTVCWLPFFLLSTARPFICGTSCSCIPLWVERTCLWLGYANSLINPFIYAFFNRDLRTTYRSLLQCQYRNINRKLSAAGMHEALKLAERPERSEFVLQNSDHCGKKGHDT
Chain of D(2) dopamine receptor (P14416 whole entry): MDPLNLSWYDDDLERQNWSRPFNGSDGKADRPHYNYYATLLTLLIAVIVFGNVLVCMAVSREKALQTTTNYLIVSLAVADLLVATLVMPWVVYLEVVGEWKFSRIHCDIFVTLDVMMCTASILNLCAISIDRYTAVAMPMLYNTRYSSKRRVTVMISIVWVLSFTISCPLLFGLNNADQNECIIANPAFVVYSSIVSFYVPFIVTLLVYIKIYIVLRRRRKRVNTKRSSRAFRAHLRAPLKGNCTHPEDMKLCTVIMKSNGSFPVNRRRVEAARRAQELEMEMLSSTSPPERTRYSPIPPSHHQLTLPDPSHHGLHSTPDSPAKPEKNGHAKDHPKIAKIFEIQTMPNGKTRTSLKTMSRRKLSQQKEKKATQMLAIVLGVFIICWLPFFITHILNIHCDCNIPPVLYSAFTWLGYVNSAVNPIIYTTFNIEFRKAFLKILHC

Ki [3] [nM]	Structure (SMILES)	Ki [1] [nM]	Ki [2] [nM]	Ki (D(2) dopamine receptor) [nM]
–	CN1CCc2ccc3ncc4cccc5c4c3c2[C@H]1C5	33.9	81	327
–	CN1CCc2ccc3c(=O)[nH]c4cccc5c4c3c2[C@H]1C5	178	54.5	54.6
1150	CN1CCc2ccc3c(=O)oc4cccc5c4c3c2[C@H]1C5	–	283	541
–	CN1CCc2ccc3[nH]c(=O)c4cccc5c4c3c2[C@H]1C5	373	341	6110
–	CN1CCc2ccc3cnc4cccc5c4c3c2[C@H]1C5	62.3	27.2	1330
2030	CN1CCc2ccc3oc(=O)c4cccc5c4c3c2[C@H]1C5	–	1480	265
